For 13 compounds, kinact, kinact/KI and IC50 results are on record in PMC6851853, “Characterization of P. falciparum dipeptidyl aminopeptidase 3 specificity identifies differences in amino acid preferences between peptide‐based substrates and covalent inhibitors” (The Febs Journal, 2019).

The target in experiment [1] is T1, DPAP3 (Plasmodium falciparum, UniProt Q8I1Y2). Briefly: biochemical. Also on record: gene PF3D7_0404700; recombinant, baculovirus/SF9 insect cells, purified from culture supernatant by ion exchange, Ni-NTA and size exclusion; active-site titrated; continuous fluorogenic assay, time-dependent inactivation of 0.2 nM recombinant DPAP3, Met-nLeu(o-Bzl)-ACC 2.2 uM. The settings on record: for kinact: read-out: DPAP3 / k inact ·10^3; for kinact/KI: read-out: DPAP3 / k inact/K i ·10^−3 (M ^−1·s^−1). How it is done: The data were analysed according to the irreversible inhibition model shown in Eqn. 1. First, the progress curves (fluorescent units vs. time) were fitted to Eqn. 5, where F is the measured fluorescence at time t, F 0 the initial fluorescence, V 0 the initial turnover rate, and k obs the observed […] rate constant of inhibition measured at each inhibitor concentration 64. […] The inhibition constants are reported in Fig. 3C and Table 2 (See also Fig. S2 for representative fits). Only one inhibitor, containing an amino‐1‐methyl‐benzyl (Amb) group in P2, was not able to inhibit DPAP3 in a time‐dependent manner under our assay conditions (Fig. 3D). This is probably due to the fact that this extended and rigid P2 AA (Fig. 3E) might prevent proper positioning of the [compound left out] group into the active site of DPAP3 to allow covalent modification of the catalytic cysteine. For this compound, a K i value for reversible inhibition was measured.
Target sequence in this assay (Q8I1Y2 entry or part of it): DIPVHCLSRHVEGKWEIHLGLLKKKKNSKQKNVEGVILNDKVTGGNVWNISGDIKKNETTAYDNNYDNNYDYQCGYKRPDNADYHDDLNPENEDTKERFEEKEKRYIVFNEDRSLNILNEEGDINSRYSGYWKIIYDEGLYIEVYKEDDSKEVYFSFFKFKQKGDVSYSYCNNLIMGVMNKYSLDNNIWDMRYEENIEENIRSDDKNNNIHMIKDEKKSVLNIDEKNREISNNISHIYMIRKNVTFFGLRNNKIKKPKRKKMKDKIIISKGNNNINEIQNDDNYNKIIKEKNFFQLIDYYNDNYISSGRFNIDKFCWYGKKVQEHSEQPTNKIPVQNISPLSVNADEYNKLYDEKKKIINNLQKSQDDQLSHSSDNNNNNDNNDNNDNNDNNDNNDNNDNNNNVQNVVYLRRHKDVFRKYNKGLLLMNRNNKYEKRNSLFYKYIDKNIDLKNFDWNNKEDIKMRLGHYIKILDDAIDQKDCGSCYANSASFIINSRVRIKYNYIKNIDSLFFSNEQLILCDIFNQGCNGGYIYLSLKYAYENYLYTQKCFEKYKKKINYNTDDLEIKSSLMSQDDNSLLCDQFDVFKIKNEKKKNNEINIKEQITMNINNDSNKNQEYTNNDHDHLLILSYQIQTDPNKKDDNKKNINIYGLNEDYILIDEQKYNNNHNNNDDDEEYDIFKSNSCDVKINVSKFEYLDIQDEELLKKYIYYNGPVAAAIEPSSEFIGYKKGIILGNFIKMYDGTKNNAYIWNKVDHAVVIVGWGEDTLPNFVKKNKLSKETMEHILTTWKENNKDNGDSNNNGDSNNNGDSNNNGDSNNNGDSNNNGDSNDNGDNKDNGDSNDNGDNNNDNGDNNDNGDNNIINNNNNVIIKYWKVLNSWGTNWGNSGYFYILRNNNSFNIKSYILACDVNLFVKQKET

Experiment [2] concerns the target T2, CatC (bovine) (Bos taurus, UniProt Q3ZCJ8).
T2 construct: gene CTSC; native, purified to homogeneity from bovine spleen
In words: biochemical. Further details: continuous fluorogenic assay, time-dependent inactivation of 0.2 nM CatC, Gly-Arg-AMC 15 uM. The settings on record: for kinact: read-out: CatC / k inact ·10^3; for kinact/KI: read-out: CatC / k inact/K i ·10^−3 (M ^−1·s^−1). How it is done: (§1) Inhibition of DPAP1 was directly measured in parasite lysates diluted 100‐fold in assay buffer using the DPAP1‐selective substrate Pro‐Arg‐AMC 42; 0.2 nM of […] was used for these inhibition studies. Note that because DPAP1 inhibition was directly measured in parasite lysates, inhibitors might have been partially inactivated through the action of aminopeptidases present in the lysates during the course of the assay. Therefore, the potency of the inhibitors might have been underestimated. […] The data were analysed according to the irreversible inhibition model shown in Eqn. 1. First, the progress curves (fluorescent units vs. time) were fitted to Eqn. 5, where F is the measured fluorescence at time t, F 0 the initial fluorescence, V 0 the initial turnover rate, and k obs the observed […] rate constant of inhibition measured at each inhibitor concentration 64.

Experiment [3] concerns the target T3, DPAP1 (Plasmodium falciparum, UniProt Q8IIJ9).
T3 sequence (Q8IIJ9 28-209): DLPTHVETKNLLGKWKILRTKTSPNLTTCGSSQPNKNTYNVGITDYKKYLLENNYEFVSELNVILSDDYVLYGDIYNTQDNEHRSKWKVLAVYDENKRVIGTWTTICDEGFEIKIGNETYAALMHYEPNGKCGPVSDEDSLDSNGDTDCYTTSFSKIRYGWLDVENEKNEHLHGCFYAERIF
T3 sequence (Q8IIJ9 370-599): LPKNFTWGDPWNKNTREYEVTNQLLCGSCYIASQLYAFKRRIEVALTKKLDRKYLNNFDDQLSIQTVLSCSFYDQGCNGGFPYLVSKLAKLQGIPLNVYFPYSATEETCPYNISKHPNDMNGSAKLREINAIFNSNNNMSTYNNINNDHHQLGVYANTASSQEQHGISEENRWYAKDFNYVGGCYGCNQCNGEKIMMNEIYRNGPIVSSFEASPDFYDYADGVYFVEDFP
T3 sequence (Q8IIJ9 600-700): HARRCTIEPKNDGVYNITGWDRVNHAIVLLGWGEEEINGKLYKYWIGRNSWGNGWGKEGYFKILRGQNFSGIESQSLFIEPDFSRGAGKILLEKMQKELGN
In words: biochemical. Also on record: species or system P. falciparum parasite lysate; continuous fluorogenic assay, time-dependent inactivation of DPAP1 in diluted parasite lysate, Pro-Arg-AMC 20 uM. The settings on record: for kinact: read-out: DPAP1 / k inact ·10^3; for kinact/KI: read-out: DPAP1 / k inact/K i ·10^−3 (M ^−1·s^−1). How it is done: as §1

For experiment [4], the target named is T1, DPAP3. In words: cell-based. Also on record: native enzyme in live parasites (mature schizonts); species or system P. falciparum mature schizonts in red blood cells; competitive activity-based probe FY01 labelling in intact parasites, in-gel fluorescence densitometry. The settings on record: live parasites, 30 min pretreatment. How it is done: Live parasites were treated with different concentrations of inhibitor for 30 min, and the residual level of DPAPs and FPs activities were labelled with FY01 and quantified by densitometry (Fig. 6A). […] Compounds with a P2 Trp or Tyr(NO2) are highly specific for DPAP3 in intact parasites. […] Inhibitors need to cross four membranes to reach DPAP3: the RBC, parasitophorous vacuole and parasite plasma membranes, plus the membrane of the apical organelle where DPAP3 resides 21. (The parasitophorous vacuole is a membrane‐bound structure within which the parasite grows and multiplies isolated from the RBC cytosol.) However, crossing of the parasitophorous vacuole membrane is not likely to be a limiting factor to reach DPAP3 since this membrane is generally permeable to small molecules. It is also likely that the apparent increased potency of Trp‐hPG‐VS in live parasites might be due to its accumulation into the DPAP3 acidic organelle via protonation of its free amine. However, we predict that this lysosomotropic effect likely occurs for all DPAP inhibitors presented here.  Figure 6 Selective inhibition of DPAP1 or DPAP3 in live parasites. Intact mature schizonts were pretreated for 30 min with increasing concentrations of inhibitor followed by 1 h treatment with FY01. Samples were then run in an SDS/PAGE gel and the in‐gel fluorescence measured using a fluorescence scanner. (A) Representative gel images obtained for each of the inhibitors. Fluorescent bands corresponding to the different cysteine proteases labelled by the probe are indicated with arrowheads (DPAP3, red; FPs, green; DPAP1, blue). (B) The fluorescence intensity of each of the indicated bands was quantified by densitometry using ImageJ, and the fluorescence values normalized to the DMSO control. […] Three technical replicates were performed; dose responses for a representative replicate are shown.
Target sequence in this assay (Q8I1Y2 entry or part of it): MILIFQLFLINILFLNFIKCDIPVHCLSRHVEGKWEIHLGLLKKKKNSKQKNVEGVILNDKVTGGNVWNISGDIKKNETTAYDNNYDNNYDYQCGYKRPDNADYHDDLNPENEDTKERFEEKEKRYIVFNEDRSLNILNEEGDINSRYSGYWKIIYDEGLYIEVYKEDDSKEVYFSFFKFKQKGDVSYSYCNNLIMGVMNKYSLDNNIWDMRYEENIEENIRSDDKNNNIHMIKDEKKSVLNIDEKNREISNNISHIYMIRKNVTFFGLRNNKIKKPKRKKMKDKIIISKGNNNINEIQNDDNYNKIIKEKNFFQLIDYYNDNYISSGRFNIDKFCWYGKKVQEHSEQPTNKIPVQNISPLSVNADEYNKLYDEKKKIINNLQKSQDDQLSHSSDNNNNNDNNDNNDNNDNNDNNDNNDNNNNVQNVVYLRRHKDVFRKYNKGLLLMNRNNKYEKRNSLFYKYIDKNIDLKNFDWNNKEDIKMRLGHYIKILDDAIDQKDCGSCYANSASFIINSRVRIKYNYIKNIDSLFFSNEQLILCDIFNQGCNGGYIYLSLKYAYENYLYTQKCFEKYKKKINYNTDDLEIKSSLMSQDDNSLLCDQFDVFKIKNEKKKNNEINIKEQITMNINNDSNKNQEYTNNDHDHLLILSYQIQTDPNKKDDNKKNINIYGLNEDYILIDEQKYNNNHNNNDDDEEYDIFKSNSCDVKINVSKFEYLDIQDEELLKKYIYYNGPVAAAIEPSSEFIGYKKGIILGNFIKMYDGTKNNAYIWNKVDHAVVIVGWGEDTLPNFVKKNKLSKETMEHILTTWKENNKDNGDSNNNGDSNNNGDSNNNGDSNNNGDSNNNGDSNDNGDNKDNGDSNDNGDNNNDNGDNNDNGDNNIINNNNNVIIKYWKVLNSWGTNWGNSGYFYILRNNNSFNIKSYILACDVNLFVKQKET

T2 sequence (Q3ZCJ8 25-134): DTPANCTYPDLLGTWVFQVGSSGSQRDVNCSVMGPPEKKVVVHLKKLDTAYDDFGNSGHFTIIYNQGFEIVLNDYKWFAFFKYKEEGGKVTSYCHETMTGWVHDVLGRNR
T2 sequence (Q3ZCJ8 231-394): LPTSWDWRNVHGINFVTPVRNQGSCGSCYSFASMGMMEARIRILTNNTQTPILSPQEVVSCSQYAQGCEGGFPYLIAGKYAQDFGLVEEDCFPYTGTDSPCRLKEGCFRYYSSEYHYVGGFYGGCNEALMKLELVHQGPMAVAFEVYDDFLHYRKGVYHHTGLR
T2 sequence (Q3ZCJ8 395-463): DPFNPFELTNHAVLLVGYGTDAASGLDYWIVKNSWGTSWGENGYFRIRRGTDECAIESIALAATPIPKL

For the compound `N[C@@H](Cc1ccc2ccccc2c1)C(=O)N[C@H](/C=C/S(=O)(=O)c1ccccc1)CCc1ccccc1` [2Nal‐hPhe‐VS], the kinact in experiment [1] came to 0.00259 ± 7e-05 s⁻¹; in experiment [2], 0.0037 ± 0.0002 s⁻¹; in experiment [3] it was 0.0067 ± 0.0002 s⁻¹. Also, the results for the kinact/KI in experiment [1], in experiment [2] and in experiment [3] were 10200 ± 500 M⁻¹ s⁻¹, 900 ± 100 M⁻¹ s⁻¹ and 200 ± 5 M⁻¹ s⁻¹, respectively.
Turning to `N[C@@H](Cc1ccc2ccccc2c1)C(=O)N[C@H](/C=C/S(=O)(=O)c1ccccc1)CCCCOCc1ccccc1` [2Nal‐nLeu(o‐Bzl)‐VS], the values for the kinact in experiment [1], in experiment [2] and in experiment [3] were 0.006 ± 0.0007 s⁻¹, 0.0024 ± 0.0006 s⁻¹ and 0.005 ± 0.0017 s⁻¹, respectively. The values for the kinact/KI in experiment [1], in experiment [2] and in experiment [3] were 2200 ± 300 M⁻¹ s⁻¹, 1370 ± 90 M⁻¹ s⁻¹ and 190 ± 50 M⁻¹ s⁻¹, respectively.
With `N[C@H](Cc1c[nH]c2ccccc12)C(=O)N[C@H](/C=C/S(=O)(=O)c1ccccc1)CCc1ccccc1` [D‐Trp‐hPhe‐VS], the results for the kinact in experiment [1], in experiment [2] and in experiment [3] were 0.0017 ± 0.0006 s⁻¹, 0.0026 ± 0.0001 s⁻¹ and 0.0027 ± 0.0002 s⁻¹, respectively. Moreover, the kinact/KI in experiment [1] worked out at 320 ± 80 M⁻¹ s⁻¹; in experiment [2], 620 ± 70 M⁻¹ s⁻¹; in experiment [3], 26 ± 1 M⁻¹ s⁻¹.
Regarding `N[C@H](Cc1c[nH]c2ccccc12)C(=O)N[C@H](/C=C/S(=O)(=O)c1ccccc1)CCCCOCc1ccccc1` [D‐Trp‐nLeu(o‐Bzl)‐VS], the kinact in experiment [1] was determined as 0.0036 ± 0.0002 s⁻¹; in experiment [2], 0.00197 ± 6e-05 s⁻¹; in experiment [3], 0.0055 ± 0.0007 s⁻¹. Moreover, the kinact/KI in experiment [1] was 470 ± 10 M⁻¹ s⁻¹; in experiment [2] it was 1700 ± 100 M⁻¹ s⁻¹; in experiment [3], 44 ± 2 M⁻¹ s⁻¹. Moreover, in experiment [4], the IC50 (as a rule, the concentration at which inhibition is half-maximal) came to 2700 ± 1600 nM.
With `N[C@H](C(=O)N[C@H](/C=C/S(=O)(=O)c1ccccc1)CCc1ccccc1)C1Cc2ccccc2C1` [Igl‐hPhe‐VS], the kinact in experiment [1] turned out to be 0.0021 ± 0.0007 s⁻¹; in experiment [2] it was 0.0058 ± 0.0003 s⁻¹; in experiment [3] it was 0.0027 ± 0.0001 s⁻¹. Moreover, the kinact/KI stood at 205000 ± 22000 M⁻¹ s⁻¹ in experiment [1], 18000 ± 3000 M⁻¹ s⁻¹ in experiment [2] and 500 ± 30 M⁻¹ s⁻¹ in experiment [3].
As for `N[C@H](C(=O)N[C@H](/C=C/S(=O)(=O)c1ccccc1)CCCCOCc1ccccc1)C1Cc2ccccc2C1` [Igl‐nLeu(o‐Bzl)‐VS], the kinact in experiment [1] came out at 0.0056 ± 0.0004 s⁻¹; in experiment [2] it was 0.00148 ± 6e-05 s⁻¹; in experiment [3] it was 0.0041 ± 0.0002 s⁻¹. In addition, the values for the kinact/KI in experiment [1], in experiment [2] and in experiment [3] were 35000 ± 4500 M⁻¹ s⁻¹, 135000 ± 14000 M⁻¹ s⁻¹ and 860 ± 50 M⁻¹ s⁻¹, respectively.
Turning to `N[C@@H](Cc1c[nH]c2ccccc12)C(=O)N[C@H](/C=C/S(=O)(=O)c1ccccc1)CCc1ccccc1` [L‐Trp‐hPhe‐VS], the kinact in experiment [1] was 0.0033 ± 0.0004 s⁻¹; in experiment [2], 0.0022 ± 9e-05 s⁻¹; in experiment [3], 0.0017 ± 0.0001 s⁻¹. The kinact/KI in experiment [1] came out at 52000 ± 7000 M⁻¹ s⁻¹; in experiment [2], 131000 ± 15000 M⁻¹ s⁻¹; in experiment [3], 3200 ± 300 M⁻¹ s⁻¹.
In the case of `N[C@@H](Cc1c[nH]c2ccccc12)C(=O)N[C@H](/C=C/S(=O)(=O)c1ccccc1)CCCCOCc1ccccc1` [L‐Trp‐nLeu(o‐Bzl)‐VS], the kinact in experiment [1] was found to be 0.0032 ± 0.0003 s⁻¹; in experiment [2] it was 0.00174 ± 3e-05 s⁻¹; in experiment [3], 0.0022 ± 0.0001 s⁻¹. The figures for the kinact/KI in experiment [1], in experiment [2] and in experiment [3] were 826000 ± 193000 M⁻¹ s⁻¹, 355000 ± 18000 M⁻¹ s⁻¹ and 5800 ± 600 M⁻¹ s⁻¹, respectively. The 50% inhibitory concentration (IC50) in experiment [4] turned out to be 760 ± 150 nM.
On to `O=C(N[C@H](C=CS(=O)(=O)c1ccccc1)CCc1ccccc1)[C@@H]1CCCN1` [Pro‐hPhe‐VS], for which the kinact came out at 0.0035 ± 0.0002 s⁻¹ in experiment [1], 0.00145 ± 7e-05 s⁻¹ in experiment [2] and 0.0021 ± 0.0002 s⁻¹ in experiment [3]. Also, the kinact/KI in experiment [1] amounted to 4100 ± 300 M⁻¹ s⁻¹; in experiment [2], 42000 ± 5000 M⁻¹ s⁻¹; in experiment [3] it was 470000 ± 35000 M⁻¹ s⁻¹.
In the case of `N[C@@H](Cc1ccc(O)c([N+](=O)[O-])c1)C(=O)N[C@H](C=CS(=O)(=O)c1ccccc1)CCc1ccccc1` [Tyr(NO2)‐hPhe‐VS], the kinact in experiment [1] is 0.00226 ± 5e-05 s⁻¹; in experiment [2], 0.0032 ± 0.0006 s⁻¹; in experiment [3] it was 0.0038 ± 0.001 s⁻¹. The kinact/KI in experiment [1] came to 950000 ± 74000 M⁻¹ s⁻¹; in experiment [2], 54 ± 8 M⁻¹ s⁻¹; in experiment [3] it was 150 ± 50 M⁻¹ s⁻¹.
With `N[C@@H](Cc1ccc(O)c([N+](=O)[O-])c1)C(=O)N[C@H](/C=C/S(=O)(=O)c1ccccc1)CCCCOCc1ccccc1` [Tyr(NO2)‐nLeu(o‐Bzl)‐VS], the kinact in experiment [1] stood at 0.0027 ± 0.0002 s⁻¹; in experiment [2], 0.0029 ± 0.0002 s⁻¹; in experiment [3], 0.0026 ± 0.0003 s⁻¹. The kinact/KI was 51000 ± 10000 M⁻¹ s⁻¹ in experiment [1], 380 ± 50 M⁻¹ s⁻¹ in experiment [2] and 1100 ± 300 M⁻¹ s⁻¹ in experiment [3]. The IC50 in experiment [4] is 730 ± 170 nM.
For `O=C(N[C@H](/C=C/S(=O)(=O)c1ccccc1)CCCCOCc1ccccc1)[C@@H]1CCCCN1` [hPro‐nLeu(o‐Bzl)‐VS], the kinact in experiment [1] came out at 0.002 ± 0.0001 s⁻¹; in experiment [2], 0.00167 ± 3e-05 s⁻¹; in experiment [3], 0.0029 ± 0.0003 s⁻¹. Besides, the figures for the kinact/KI in experiment [1], in experiment [2] and in experiment [3] were 53000 ± 6500 M⁻¹ s⁻¹, 150000 ± 6000 M⁻¹ s⁻¹ and 3.56e+06 ± 150000 M⁻¹ s⁻¹, respectively.
Regarding `CCC[C@H](N)C(=O)N[C@H](/C=C/S(=O)(=O)c1ccccc1)CCc1ccccc1` [nVal‐hPhe‐VS], the results for the kinact in experiment [1], in experiment [2] and in experiment [3] were 0.0026 ± 0.0004 s⁻¹, 0.0022 ± 0.0001 s⁻¹ and 0.002 ± 0.0001 s⁻¹, respectively. For the same compound, the kinact/KI in experiment [1] was found to be 940000 ± 160000 M⁻¹ s⁻¹; in experiment [2] it was 5.83e+06 ± 970000 M⁻¹ s⁻¹; in experiment [3] it was 3.16e+06 ± 750000 M⁻¹ s⁻¹.
